The target of this experiment is S. pneumoniae Topoisomerase IV ATPase (ParE) (Streptococcus pneumoniae serotype 4, UniProt Q59961). Put plainly: S. pneumoniae Topoisomerase IV ATPase inhibition. The class given is biochemical. The note with it: values marked * are an average of two or more data points, read-out: % Inh (13 μM) of S. pneumoniae Topoisomerase IV ATPase. In outline:
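Malachite green/ammonium molybdate phosphate detection, A650. 1.25 nM ParE, 160 μM ATP, sheared salmon sperm DNA 5 μg/ml, 20 mM Tris pH 8.0, 8.0 mM MgCl2. Controls: 2% DMSO = 0%, 20 μM EDTA = 100% inhibition; IC50 over 10 concentrations.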
Sequence of S. pneumoniae Topoisomerase IV ATPase (ParE) (Q59961 whole entry): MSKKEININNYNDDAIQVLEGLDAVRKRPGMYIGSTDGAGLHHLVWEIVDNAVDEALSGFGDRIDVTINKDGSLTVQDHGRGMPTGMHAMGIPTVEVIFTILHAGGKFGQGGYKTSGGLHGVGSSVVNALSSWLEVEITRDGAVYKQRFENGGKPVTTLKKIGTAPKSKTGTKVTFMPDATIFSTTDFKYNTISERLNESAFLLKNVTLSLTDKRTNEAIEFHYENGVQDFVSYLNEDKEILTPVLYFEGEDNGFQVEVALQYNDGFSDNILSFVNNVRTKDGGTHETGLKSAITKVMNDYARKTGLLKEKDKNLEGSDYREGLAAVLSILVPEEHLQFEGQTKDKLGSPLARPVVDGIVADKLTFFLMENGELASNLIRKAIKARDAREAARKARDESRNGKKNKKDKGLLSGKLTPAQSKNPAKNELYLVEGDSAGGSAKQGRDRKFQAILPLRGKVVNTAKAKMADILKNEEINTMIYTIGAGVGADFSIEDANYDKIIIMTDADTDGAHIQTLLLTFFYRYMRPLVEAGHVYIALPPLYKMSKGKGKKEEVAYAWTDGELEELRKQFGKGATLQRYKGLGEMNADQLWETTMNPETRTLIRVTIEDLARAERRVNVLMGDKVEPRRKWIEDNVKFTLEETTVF
As to `O=C(O)/C=C/c1cccc(-c2cnc(Nc3ccc(F)c(Cl)c3)nc2-n2cc(Cl)cn2)c1` [Example 313, (2E)-3-(3-{2-[(3-chloro-4-fluorophenyl)amino]-4-(4-chloro-1H-pyrazol-1-yl)pyrimidin-5-yl}phenyl)prop-2-enoic acid], the inhibition at 13 µM is 80.3%.

Consider `Cc1cc(C(F)(F)F)nn1-c1nc(Nc2ccc(F)c(Cl)c2)ncc1-c1cncnc1` [Example 70, N-(3-chloro-4-fluorophenyl)-4-[5-methyl-3-(trifluoromethyl)-1H-pyrazol-1-yl]-5,5′-bipyrimidin-2-amine], for which the inhibition at 13 µM was 86.6%.

In the case of `COc1cc(Nc2ncc(-c3c[nH]c(=O)c(C(=O)O)c3)c(-n3nc(C(F)(F)F)cc3C)n2)cc(OC)c1` [Example 1098, 5-(2-(3,5-Dimethoxyphenylamino)-4-(5-methyl-3-(trifluoromethyl)-1H-pyrazol-1-yl)pyrimidin-5-yl)-2-oxo-1,2-dihydropyridine-3-carboxylic acid], the inhibition at 13 µM came out at 100%.

`Fc1ccc(Nc2ncc(-c3cncnc3)c(-n3nnc4ncccc43)n2)cc1Cl` [Example 88, N-(3-chloro-4-fluorophenyl)-4-(1H-[1,2,3]triazolo[4,5-b]pyridin-1-yl)-5,5′-bipyrimidin-2-amine]: the inhibition at 13 µM amounted to 102%.

Turning to `COc1cc(Nc2ncc(-c3cnc(SC)c(C(=O)O)c3)c(-n3ccc(C(F)(F)F)n3)n2)cc(OC)c1` [Example 851, 5-{2-[(3,5-dimethoxyphenyl)amino]-4-[3-(trifluoromethyl)-1H-pyrazol-1-yl]pyrimidin-5-yl}-2-(methylsulfanyl)pyridine-3-carboxylic acid], the inhibition at 13 µM is 98%.

As to `COc1cc(Nc2ncc(-c3cncc(C(=O)O)c3)c(-n3nc(C(F)(F)F)cc3C)n2)cc(C(F)(F)F)c1` [Example 913, 5-(2-(3-methoxy-5-(trifluoromethyl)phenylamino)-4-(5-methyl-3-(trifluoromethyl)-1H-pyrazol-1-yl)pyrimidin-5-yl)nicotinic acid], the inhibition at 13 µM was 100%.

In the case of `O=C(O)c1cc(-c2cnc(Nc3ccc(F)c(Cl)c3)nc2-n2ccc(C(F)(F)F)n2)ccn1` [Example 1068, 4-(2-(3-Chloro-4-fluorophenylamino)-4-(3-(trifluoromethyl)-1H-pyrazol-1-yl)pyrimidin-5-yl)picolinic acid], the inhibition at 13 µM is 100%.

On to `Fc1ccc(Nc2ncc(-c3cncnc3)c(NCCCN3CCOCC3)n2)cc1Cl` [Example 49, N^2-(3-chloro-4-fluorophenyl)-N^4-(3-morpholin-4-ylpropyl)-5-pyrimidin-5-ylpyrimidine-2,4-diamine], for which the inhibition at 13 µM worked out at 85.6%.

Consider `COc1ccc(-c2cnc(Nc3ccc(F)c(Cl)c3)nc2NCCCN(C)C)cn1` [Example 18, N^2-(3-chloro-4-fluorophenyl)-N^4-[3-(dimethylamino)propyl]-5-(6-methoxy-pyridin-3-yl)pyrimidin-2,4-diamine], for which the inhibition at 13 µM was 96.6%.

Turning to `CC(=O)Nc1ccn(-c2nc(Nc3ccc(F)c(Cl)c3)ncc2-c2cncc(C(=O)O)c2)n1` [Example 534, 5-{4-[3-(acetylamino)-1H-pyrazol-1-yl]-2-[(3-chloro-4-fluorophenyl)amino]pyrimidin-5-yl}pyridine-3-carboxylic acid], the inhibition at 13 µM came out at 49%.

Take `O=C(O)/C=C/c1cccc(-c2cnc(Nc3ccc(F)cc3)nc2N2CCOCC2)c1` [Example 447]: the inhibition at 13 µM came to 50%.

For `COc1ncc(-c2cnc(Nc3ccc(F)c(Cl)c3)nc2NCCc2ccncc2)cn1` [Example 461, N^2-(3-chloro-4-fluorophenyl)-2′-methoxy-N^4-[2-(pyridin-4-yl)ethyl]-5,5′-bipyrimidine-2,4-diamine], the inhibition at 13 µM was 100%.

Turning to `O=C(O)/C=C/c1cccc(-c2cnc(Nc3ccc(F)c(Cl)c3)nc2NCCc2c[nH]cn2)c1` [Example 264, (2E)-3-[3-(2-[(3-chloro-4-fluorophenyl)amino]-4-{[2-(1H-imidazol-4-yl)ethyl]amino}pyrimidin-5-yl)phenyl]prop-2-enoic acid], the inhibition at 13 µM was 87.8%.

The values are drawn from patent US20100137313A1 (ASTRAZENECA AB, priority 2008, published 2010).
